Experiments:
RPMI-8226 = assay: NCI-60 SRB growth inhibition, one-dose and five-dose; assay type: cell-based; conditions: Homo sapiens; for GI50: RPMI-8226; for inhibition at 10 µM: RPMI-8226, read-out: percent growth inhibition
NCI-H23 = assay: as above; assay type: cell-based; conditions: Homo sapiens; for GI50: NCI-H23; for inhibition at 10 µM: NCI-H23, read-out: percent growth inhibition
NCI-H322M = assay: as above; assay type: cell-based; conditions: Homo sapiens; for inhibition at 10 µM: read-out: percent growth inhibition
NCI-H460 = assay: as above; assay type: cell-based; conditions: Homo sapiens; for GI50: NCI-H460; for inhibition at 10 µM: NCI-H460, read-out: percent growth inhibition
HT29 = assay: as above; assay type: cell-based; conditions: Homo sapiens; for GI50: HT-29; for inhibition at 10 µM: HT-29, read-out: percent growth inhibition
SW-620 = assay: as above; assay type: cell-based; conditions: Homo sapiens; for GI50: SW-620; for inhibition at 10 µM: SW-620, read-out: percent growth inhibition
SF-295 = assay: as above; assay type: cell-based; conditions: Homo sapiens; for GI50: SF-295; for inhibition at 10 µM: SF-295, read-out: percent growth inhibition
SNB-75 = assay: as above; assay type: cell-based; conditions: Homo sapiens; for GI50: SNB-75; for inhibition at 10 µM: SNB-75, read-out: percent growth inhibition
M14 = assay: as above; assay type: cell-based; conditions: Homo sapiens; for GI50: M14; for inhibition at 10 µM: M14, read-out: percent growth inhibition
UACC-257 = assay: as above; assay type: cell-based; conditions: Homo sapiens; for GI50: UACC-257; for inhibition at 10 µM: UACC-257, read-out: percent growth inhibition
UACC-62 = assay: as above; assay type: cell-based; conditions: Homo sapiens; for GI50: UACC-62; for inhibition at 10 µM: UACC-62, read-out: percent growth inhibition
NCI/ADR-RES = assay: as above; assay type: cell-based; conditions: Homo sapiens; for inhibition at 10 µM: read-out: percent growth inhibition
SK-OV-3 = assay: as above; assay type: cell-based; conditions: Homo sapiens; for GI50: SK-OV-3; for inhibition at 10 µM: SK-OV-3, read-out: percent growth inhibition
786-0 = assay: as above; assay type: cell-based; conditions: Homo sapiens; for GI50: 786-0; for inhibition at 10 µM: 786-0, read-out: percent growth inhibition
ACHN = assay: as above; assay type: cell-based; conditions: Homo sapiens; for inhibition at 10 µM: read-out: percent growth inhibition
SN12C = assay: as above; assay type: cell-based; conditions: Homo sapiens; for inhibition at 10 µM: read-out: percent growth inhibition
TK-10 = assay: as above; assay type: cell-based; conditions: Homo sapiens; for GI50: TK-10; for inhibition at 10 µM: TK-10, read-out: percent growth inhibition
UO-31 = assay: as above; assay type: cell-based; conditions: Homo sapiens, UO-31
MDA-MB-231/ATCC = assay: as above; assay type: cell-based; conditions: Homo sapiens, MDA-MB-231
Leukaemia cell lines = assay: NCI-60 SRB growth inhibition, subpanel; assay type: cell-based, human; conditions: Homo sapiens, read-out: GI50 MG-MID
NSCLC cell lines = assay: NCI-60 SRB growth inhibition, subpanel; assay type: cell-based, human; conditions: Homo sapiens, read-out: GI50 MG-MID
Colon cancer cell lines = assay: NCI-60 SRB growth inhibition, subpanel; assay type: cell-based, human; conditions: Homo sapiens, read-out: GI50 MG-MID
CNS cancer cell lines = assay: NCI-60 SRB growth inhibition, subpanel; assay type: cell-based, human; conditions: Homo sapiens, read-out: GI50 MG-MID
Melanoma cell lines = assay: NCI-60 SRB growth inhibition, subpanel; assay type: cell-based, human; conditions: Homo sapiens, read-out: GI50 MG-MID
[1] = system: Ovarian cancer cell lines; assay: NCI-60 SRB growth inhibition, subpanel; assay type: cell-based, human; conditions: Homo sapiens, read-out: GI50 MG-MID
Renal cancer cell lines = assay: NCI-60 SRB growth inhibition, subpanel; assay type: cell-based, human; conditions: Homo sapiens, read-out: GI50 MG-MID
[2] = system: Prostate cancer cell lines; assay: NCI-60 SRB growth inhibition, subpanel; assay type: cell-based, human; conditions: Homo sapiens, read-out: GI50 MG-MID
Breast cancer cell lines = assay: NCI-60 SRB growth inhibition, subpanel; assay type: cell-based, human; conditions: Homo sapiens, read-out: GI50 MG-MID
[3] = Cytotoxicity towards normal fibroblasts, safety index; assay type: cell-based, human; conditions: human, WI-38 normal fibroblast cells
[4] = system: WI-38 normal human fibroblast cells; assay: as above; assay type: cell-based; conditions: WI-38 versus cancer cell lines
Human VEGFR-2 = Human VEGFR-2 (Homo sapiens, UniProt P35968); assay: VEGFR-2 inhibition assay; assay type: biochemical
Chain of Human VEGFR-2 (P35968 20-1356): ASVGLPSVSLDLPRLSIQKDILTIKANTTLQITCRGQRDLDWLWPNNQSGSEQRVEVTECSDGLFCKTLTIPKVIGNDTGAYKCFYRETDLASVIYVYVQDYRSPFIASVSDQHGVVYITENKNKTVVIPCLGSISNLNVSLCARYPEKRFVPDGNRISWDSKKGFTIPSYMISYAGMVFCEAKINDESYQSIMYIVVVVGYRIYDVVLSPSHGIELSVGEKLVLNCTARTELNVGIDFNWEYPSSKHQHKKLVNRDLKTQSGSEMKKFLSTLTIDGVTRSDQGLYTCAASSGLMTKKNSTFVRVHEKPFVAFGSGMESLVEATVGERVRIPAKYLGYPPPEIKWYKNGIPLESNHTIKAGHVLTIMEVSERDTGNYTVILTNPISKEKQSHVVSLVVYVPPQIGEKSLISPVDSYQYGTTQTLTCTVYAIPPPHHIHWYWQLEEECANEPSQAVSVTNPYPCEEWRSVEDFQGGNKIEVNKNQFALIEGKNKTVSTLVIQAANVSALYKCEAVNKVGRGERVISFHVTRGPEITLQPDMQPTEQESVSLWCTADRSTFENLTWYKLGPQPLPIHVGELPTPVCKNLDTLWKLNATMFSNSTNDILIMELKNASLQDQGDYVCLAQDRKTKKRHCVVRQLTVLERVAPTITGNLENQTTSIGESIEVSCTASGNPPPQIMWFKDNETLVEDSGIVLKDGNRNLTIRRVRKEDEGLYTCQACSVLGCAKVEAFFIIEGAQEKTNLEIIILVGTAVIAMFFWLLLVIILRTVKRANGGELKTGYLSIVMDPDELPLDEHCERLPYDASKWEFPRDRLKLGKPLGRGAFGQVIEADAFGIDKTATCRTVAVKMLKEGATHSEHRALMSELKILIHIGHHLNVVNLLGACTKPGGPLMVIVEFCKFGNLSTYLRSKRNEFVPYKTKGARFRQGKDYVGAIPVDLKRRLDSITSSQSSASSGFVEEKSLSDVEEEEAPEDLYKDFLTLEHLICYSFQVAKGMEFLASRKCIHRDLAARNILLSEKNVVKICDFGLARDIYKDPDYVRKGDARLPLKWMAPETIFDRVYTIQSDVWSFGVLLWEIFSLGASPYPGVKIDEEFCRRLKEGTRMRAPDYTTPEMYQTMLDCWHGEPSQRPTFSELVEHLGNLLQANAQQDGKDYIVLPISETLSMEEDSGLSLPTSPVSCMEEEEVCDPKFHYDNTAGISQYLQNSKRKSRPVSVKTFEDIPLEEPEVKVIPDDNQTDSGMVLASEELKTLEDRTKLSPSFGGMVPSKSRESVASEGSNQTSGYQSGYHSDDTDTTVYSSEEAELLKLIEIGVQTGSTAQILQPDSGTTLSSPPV

Compound: CC(=O)Nc1ccc(/C=C/C(=O)c2cccc(NCc3csc4ccccc34)c2)cc1 [Compound 5i, (E)-N-(4–(3-(3-((benzo[b]thiophen-3-ylmethyl)amino)phenyl)-3-oxoprop-1-en-1-yl)phenyl) acetamide]
- GI50 (RPMI-8226): 2.56 µM
- inhibition at 10 µM (RPMI-8226): 121%
- GI50 (NCI-H23): 9.1 µM
- inhibition at 10 µM (NCI-H23): 57.5%
- GI50 (NCI-H322M): 17.5 µM
- inhibition at 10 µM (NCI-H322M): 41.2%
- GI50 (NCI-H460): 3.84 µM
- inhibition at 10 µM (NCI-H460): 88.9%
- GI50 (HT29): 5.38 µM
- inhibition at 10 µM (HT29): 92.8%
- GI50 (SW-620): 2.6 µM
- inhibition at 10 µM (SW-620): 123%
- GI50 (SF-295): 11.9 µM
- inhibition at 10 µM (SF-295): 73.1%
- GI50 (SNB-75): 3.39 µM
- inhibition at 10 µM (SNB-75): 30.5%
- GI50 (M14): 10.9 µM
- inhibition at 10 µM (M14): 57.7%
- GI50 (UACC-257): 14.2 µM
- inhibition at 10 µM (UACC-257): 50.6%
- GI50 (UACC-62): 6.44 µM
- inhibition at 10 µM (UACC-62): 76.7%
- GI50 (NCI/ADR-RES): 2.79 µM
- inhibition at 10 µM (NCI/ADR-RES): 117%
- GI50 (SK-OV-3): 16.7 µM
- inhibition at 10 µM (SK-OV-3): 1.94%
- GI50 (786-0): 11.4 µM
- inhibition at 10 µM (786-0): 81.8%
- GI50 (ACHN): 7.35 µM
- inhibition at 10 µM (ACHN): 51.4%
- GI50 (SN12C): 3.29 µM
- inhibition at 10 µM (SN12C): 93.3%
- GI50 (TK-10): 17.6 µM
- inhibition at 10 µM (TK-10): 23.9%
- GI50 (UO-31): 5.16 µM
- GI50 (MDA-MB-231/ATCC): 3.42 µM
- GI50 (Leukaemia cell lines): 2.93 µM
- GI50 (NSCLC cell lines): 11.2 µM
- GI50 (Colon cancer cell lines): 6.66 µM
- GI50 (CNS cancer cell lines): 6.12 µM
- GI50 (Melanoma cell lines): 8.14 µM
- GI50 [1]: 8.28 µM
- GI50 (Renal cancer cell lines): 11.3 µM
- GI50 [2]: 5.01 µM
- GI50 (Breast cancer cell lines): 3.79 µM
- GI50 at 48 h [3]: > 100 µM
- Safety index [4]: >1
- IC50 (Human VEGFR-2): 0.66 ± 0.018 µM

Compound: CC(=O)Nc1ccc(/C=C/C(=O)c2cccc(NCc3ccc(NC(C)=O)cc3)c2)cc1 [Compound 5g, (E)-N-(4–(3-(3-((4-acetamidobenzyl)amino)phenyl)-3-oxoprop-1-en-1-yl)phenyl) acetamide]
- GI50 (RPMI-8226): 3.02 µM
- inhibition at 10 µM (RPMI-8226): 130%
- GI50 (NCI-H23): 14.4 µM
- inhibition at 10 µM (NCI-H23): 55.1%
- GI50 (NCI-H322M): 13.8 µM
- inhibition at 10 µM (NCI-H322M): 28.7%
- GI50 (NCI-H460): 6.29 µM
- inhibition at 10 µM (NCI-H460): 136%
- GI50 (HT29): 5.75 µM
- inhibition at 10 µM (HT29): 164%
- GI50 (SW-620): 1.9 µM
- inhibition at 10 µM (SW-620): 158%
- GI50 (SF-295): 14 µM
- inhibition at 10 µM (SF-295): 51.8%
- GI50 (SNB-75): 4.87 µM
- inhibition at 10 µM (SNB-75): 17%
- GI50 (M14): 12.6 µM
- inhibition at 10 µM (M14): 77%
- GI50 (UACC-257): 12.5 µM
- inhibition at 10 µM (UACC-257): 51.1%
- GI50 (UACC-62): 8.03 µM
- inhibition at 10 µM (UACC-62): 74.2%
- GI50 (NCI/ADR-RES): 16.5 µM
- inhibition at 10 µM (NCI/ADR-RES): 88.2%
- GI50 (SK-OV-3): 16.3 µM
- inhibition at 10 µM (SK-OV-3): 0.18%
- GI50 (786-0): 13.7 µM
- inhibition at 10 µM (786-0): 144%
- GI50 (ACHN): 5.1 µM
- inhibition at 10 µM (ACHN): 105%
- GI50 (SN12C): 4.82 µM
- inhibition at 10 µM (SN12C): 87%
- GI50 (TK-10): 13.8 µM
- inhibition at 10 µM (TK-10): 33.2%
- GI50 (UO-31): 10.8 µM
- GI50 (MDA-MB-231/ATCC): 4.56 µM
- GI50 (Leukaemia cell lines): 3.87 µM
- GI50 (NSCLC cell lines): 12.2 µM
- GI50 (Colon cancer cell lines): 8.13 µM
- GI50 (CNS cancer cell lines): 9.95 µM
- GI50 (Melanoma cell lines): 9.64 µM
- GI50 [1]: 11.8 µM
- GI50 (Renal cancer cell lines): 10.7 µM
- GI50 [2]: 11.7 µM
- GI50 (Breast cancer cell lines): 7.7 µM
- GI50 at 48 h [3]: > 100 µM
- Safety index [4]: >1
- IC50 (Human VEGFR-2): 0.47 ± 0.013 µM

Reference: paper PMC11003488 (Journal of Enzyme Inhibition and Medicinal Chemistry, 2023)
